Consider 14 compounds from patent US20250243427A1, “PRECURSORS OF PHENOLIC FRAGRANT COMPOUNDS” (GIVAUDAN SA, priority 2021, published 2025).

Entries after “also recorded” stand apart in the source; their conditions may differ.

Data set [1] in a line: Odor description on paper blotter. The conditions noted are these: 1% solution in EtOH on paper blotter, 24 h.
Data set [2] is described as follows: Washtest and sensory evaluation of fabric washed with liquid detergent. The conditions noted are these: for odour intensity, wet: Table 2 (position of double bond); for odour intensity, wet / odor intensity, wet: wet fabric, scale 0 (odorless) to 5 (extremely strong); for odour intensity, 1 day / odour intensity, 4 days: Table 2; for odour intensity, 1 day / odour intensity, 4 days / odor intensity, 1 day / odor intensity, 4 days: scale 0 to 5. As to the method:
The wet and line-dried fabric (1 and 4 days) was assessed by a panel of 4-6 experts with regard to odor intensity and quality. The odor intensity was recorded on an intensity scale of 0 (odorless) to 5 (extremely strong).
The odour intensity was recorded on an intensity scale of 0 (odorless) to 5 (extremely strong).
Liquid detergent samples were prepared and used in washtests and subsequent sensory evaluation of the washed and dried fabric as described in Example 45a and c. The odor intensity was recorded on an intensity scale of 0 (odorless) to 5 (extremely strong).

A short description of data set [3]: Biodegradability, manometric respirometry test (OECD 301F). On the set-up: key to result (biodegradable class; cell wraps to 'biodegradable'): A compound is readily biodegradable, if the pass level is reached within 10 days within the 28-day period of the test; If the pass level is obtained after 28-day period of the test, the compound can be classified as inherently biodegradable. The conditions noted are these: for result (biodegradable class; cell wraps to 'biodegradable'): 28-day test, 10-day window; for Biodegradation in %: pass level 60% oxygen consumption of theory. From the text: The results of the biodegradability assessment by the manometric respirometry test (OECD guideline for the testing of materials No. 301F, Paris 1992) are summarized in Table 5.
A compound can be classified biodegradable, if it reaches the pass level of 60% oxygen consumption of theory required for complete mineralization.
A compound is readily biodegradable, if the pass level is reached within 10 days within the 28-day period of the test. The 10-day window begins when the degree of biodegradation has reached 10%. If the pass level is obtained after 28-day period of the test, the compound can be classified as inherently biodegradable.

Data set [4] in a line: Malodour reduction on washed fabric, trained sensory panel. The conditions noted are these: 4 day dry cloth washed with unit dose containing 2% of a 10% solution in trietylcitrate, + Male Sweat Malodour, 0-100 line scale; for Perceived Fragrance Intensity: control set at 0; for Perceived Malodour Intensity: malodour control set at 40. How it is done: Fabrics (18 cm×14 cm cotton jersey) were stripped before use. They were then washed in European washing machines (40° C.—1,000 spin/min) with one unit dose (65 g) used per wash load. The unit dose contained 2% of a 10% solution of the compound of formula 1 in trietylcitrate. • a) Compound of example 33 • b) Compound of example 34 • c) Compound of example 1
The total wash load was 1.6 kg made up of test cloths and hand towels (100% cotton) as ballast. The cloth was line dried and left overnight in a perfume free room at 25° C., left to hang for 3 days and then wrapped in foil the day prior to the test (day 3). 30 minutes before the assessment, 50 μL of the pure Male Sweat malodour was placed on top of a cotton pad and introduced into a 500 ml powder jar. One cotton jersey square was then placed over the top of the powder jar and secured with a rubber band. Every sample tested was coded with a random code number.
The malodour and fragrance perceived intensities were assessed by the trained sensory panel using a 0-100 line scale. All malodour and fragrance perceived intensities were scaled against the malodour control sample. The malodour perceived intensity was set at 40 for Male Sweat malodour and the fragrance perceived intensity was set at 0.
The order of samples assessed by the panelists was pre-determined using a balanced randomisation. The samples were assessed in a sequential monadic way. The products were assessed twice by 14 panelists, thus giving 28 assessments per sample.
Before analysis, the data was checked for outliers and extreme violations to normality.
Reliability of the data was checked and data of panelists with poor discrimination, consensus or repeatability may have been removed from the analysis. The data was analysed using analysis of variance (ANOVA). A 5% significance level (95% confidence level) was used. Separate ANOVAs were carried out for malodour and fragrance intensity. The ANOVA have product, panelist, and replicate as factors. Pairwise comparisons of the products were done using the Benjamini-Hochberg correction for multiple testing. The estimated product means are reported.

A short description of data set [5]: Application in shampoo base, odour on hair swatch. The conditions noted are these: 0.2% by weight in clear hair shampoo base; dried hair swatch 1 and 3 days; panel of 7 experts. As to the method:
A hair shampoo sample (20 g) was prepared by adding 0.2% by weight of 3-ethoxy-4-(hex-3-en-1-yloxy)benzaldehyde (compound of example 3) to unperfumed clear hair shampoo base and mixing on a bottle roller for 24 h at room temperature. An odour-neutral human hair swatch was wetted with warm tap water and lathered delicately with 2 mL of the above hair shampoo sample for 30 sec by hand wearing gloves. The lathered hair swatch was left in a plastic bowl for 2 min, then rinsed under running tap water for 20 sec. After removing excess water by squeezing the hair swatch between two fingers, it was left to dry in open air. The odour of the wet and dried hair swatch (1 and 3 days) was assessed by a panel of 7 experts.

A short description of data set [6]: Color stability in liquid detergent, visual inspection. The conditions noted are these: 0.2% by weight in unperfumed liquid detergent base, stirred 24 h at room temperature; compared to unperfumed base sample (C). In kind it is physicochemical. From the text: The above prepared samples were visually inspected in comparison to an unperfumed base sample (sample C).

Setting [7] is: liquid detergent washtest, dry fabric 1 day.
The mark [8] stands for this setting: liquid detergent washtest, dry fabric 4 days.
Setting [9] is: Table 3, liquid detergent washtest.
Where [10] appears, read: Table 3, liquid detergent washtest, dry fabric 1 day.
The mark [11] stands for this setting: Table 3, liquid detergent washtest, dry fabric 4 days.

On to `CC=CCCOc1ccc(C=O)cc1OCC` [Example 33, 3-ethoxy-4-(pent-3-en-1-yloxy)benzaldehyde], for which the Odor description entry in data set [1] is “mild, powdery, vanilla, peppery”. Further, in data set [2] (liquid detergent washtest), the “odour intensity, wet” value is reported as 1.1. In addition, the “odour intensity, 1 day” value in data set [2] (setting [7]) amounted to 3.2. The “odour intensity, 4 days” value in data set [2] (setting [8]) amounted to 3.8. Further, in data set [3], the “result (biodegradable class; cell wraps to 'biodegradable')” value (from here on “result”) is reported as “inherently” and the Biodegradation in % came to 66%. Also, in data set [4], the “Perceived Fragrance Intensity” value is 22.3 and the “Perceived Malodour Intensity” value stood at 26.5.

For the compound `CCOc1cc(C=O)ccc1OCCC=C(C)C` [Example 34, 3-ethoxy-4-((4-methylpent-3-en-1-yl)oxy)benzaldehyde], the Odor description result in data set [1] is “powdery, vanilla, chocolate”. Besides, in data set [2] (setting [9]), the “odor on dry fabric” value is on record as “vanilla” and the “odor intensity, wet” value worked out at 1.5. Moreover, the “odor intensity, 1 day” value in data set [2] (setting [10]) is 3.3. In data set [2] (setting [11]), the “odor intensity, 4 days” value is given as 3.4. Further, in data set [3], the “result” value was “inherently” and the Biodegradation in % was determined as 69%. In data set [4], the “Perceived Fragrance Intensity” value turned out to be 31.1 and the “Perceived Malodour Intensity” value turned out to be 20.6.

Take `CCC=CCCOc1ccc(C=O)cc1OCC` [Example 3, 3-ethoxy-4-(hex-3-en-1-yloxy)benzaldehyde]: the Odor description entry in data set [1] is “powdery sweet (vanilla)”. Also, the “odour perceived on dry hair swatch” value in data set [5] is “Five out of seven experts perceived a vanilla note”.

In the case of `CC/C=C\CCOc1ccc(C=O)cc1OC` [Example 8, (Z)-4-(hex-3-en-1-yloxy)-3-methoxybenzaldehyde], the Odor description entry in data set [1] is “powdery (vanilla) slightly green”. Further, in data set [3], the “result” value was “readily” and the Biodegradation in % was 92%.

As to `C=CCc1ccc(OCC/C=C\CC)c(OC)c1` [Example 10, (Z)-4-allyl-1-(hex-3-en-1-yloxy)-2-methoxybenzene], the Odor description entry in data set [1] is recorded as “slightly spicy”. In addition, in data set [2] (setting [9]), the “odor on dry fabric” value is “spicy, clove,; also recorded: gingerbread” and the “odor intensity, wet” value came to 1.6. In addition, the “odor intensity, 1 day” value in data set [2] (setting [10]) turned out to be 2.4. The “odor intensity, 4 days” value in data set [2] (setting [11]) came out at 2.5.

As to `CC/C=C\CCOc1ccc(CCC(C)=O)cc1` [Example 6, (Z)-4-(4-(hex-3-en-1-yloxy)phenyl)butan-2-one], in data set [1], the Odor description result is reported as “raspberry”. Also, in data set [2] (setting [9]), the “odor on dry fabric” value is reported as “raspberry” and the “odor intensity, wet” value is recorded as 3.0. For the same compound, in data set [2] (setting [10]), the “odor intensity, 1 day” value worked out at 2.8. Further, the “odor intensity, 4 days” value in data set [2] (setting [11]) worked out at 3.6. For the same compound, in data set [3], the “result” value is reported as “readily” and the Biodegradation in % was 82%.

As to `CCOc1cc(C=O)ccc1O` [Ethylvanillin (A), 3-ethoxy-4-hydroxybenzaldehyde, reference compound], the “Color of liquid detergent sample (visual inspection)” value in data set [6] is listed as “strong brown-purple coloration”.

On to `C=CCCCOc1ccc(C=O)cc1OCC` [Example 53, 3-ethoxy-4-(pent-4-en-1-yloxy)benzaldehyde, reference compound], for which, in data set [2] (liquid detergent washtest), the “odour intensity, wet” value is 1.5. The “odour intensity, 1 day” value in data set [2] (setting [7]) was 1.3. Also, the “odour intensity, 4 days” value in data set [2] (setting [8]) is listed as 1.2.

`CCC/C=C/COc1ccc(C=O)cc1OCC` [Example 54, (E)-3-ethoxy-4-(hex-2-en-1-yloxy)benzaldehyde, reference compound]: the “odour intensity, wet” value in data set [2] (liquid detergent washtest) is 1.2. The “odour intensity, 1 day” value in data set [2] (setting [7]) is listed as 1.8. For the same compound, the “odour intensity, 4 days” value in data set [2] (setting [8]) was 1.4.

Turning to `C/C=C/c1ccc(OCC/C=C\CC)c(OC)c1` [Example 11, 1-(((Z)-hex-3-en-1-yl)oxy)-2-methoxy-4-((E)-prop-1-en-1-yl)benzene], the Odor description entry in data set [1] is given as “slightly spicy woody”. In data set [2] (setting [9]), the “odor on dry fabric” value was “spicy, vanilla” and the “odor intensity, wet” value was 2.0. Also, the “odor intensity, 1 day” value in data set [2] (setting [10]) stood at 1.9. Besides, the “odor intensity, 4 days” value in data set [2] (setting [11]) is on record as 3.0.

Take `CC/C=C\CCOc1ccc(C=O)cc1OCC` [Example 1, (Z)-3-ethoxy-4-(hex-3-en-1-yloxy)benzaldehyde]: the Odor description entry in data set [1] is “powdery (vanillin) creamy”. Besides, the “Color of liquid detergent sample (visual inspection)” value in data set [6] is recorded as “optically identical to the unperfumed base”. In addition, in data set [2] (0.2% in liquid detergent, 40° C. machine wash, after 1 and 4 days), the “odor released from washed T-shirts” value is “strong vanilla, sweet, powdery and creamy fragrance”. Moreover, the “odor intensity, 1 day” value in data set [2] (Table 1, 0.2% in liquid detergent, 40° C. machine wash, line-dried fabric 1 day) is given as 3. In data set [2] (Table 1, 0.2% in liquid detergent, 40° C. machine wash, line-dried fabric 4 days), the “odor intensity, 4 days” value is recorded as 3.7. In addition, in data set [2] (Table 1, 0.2% in liquid detergent, 40° C. machine wash), the “odor intensity, wet” value turned out to be 1.3. Moreover, the “odour intensity, wet” value in data set [2] (liquid detergent washtest) worked out at 3.2. Also, the “odour intensity, 1 day” value in data set [2] (setting [7]) stood at 3.2. For the same compound, the “odour intensity, 4 days” value in data set [2] (setting [8]) is listed as 3.6. Further, in data set [3], the “result” value is recorded as “inherently” and the Biodegradation in % is recorded as 61%. In addition, in data set [4], the “Perceived Fragrance Intensity” value turned out to be 18.3 and the “Perceived Malodour Intensity” value was 29.5.

Turning to `CCOc1cc(C=O)ccc1OC1CC=CC1` [Example 20, 4-(cyclopent-3-en-1-yloxy)-3-ethoxybenzaldehyde], in data set [1], the Odor description result was “vanilla (powdery, spicy, creamy)”. In addition, the “odor on dry fabric” value in data set [2] (setting [9]) is recorded as “vanilla, powdery”. Moreover, the “odor intensity, 1 day” value in data set [2] (setting [10]) worked out at 3.0. For the same compound, the “odor intensity, 4 days” value in data set [2] (setting [11]) is recorded as 3.7. In data set [3], the “result” value is listed as “inherently” and the Biodegradation in % is recorded as 74%.

In the case of `CC/C=C\CCOc1cc(C)c(C(=O)OC)c(O)c1C` [Example 9, methyl (Z)-4-(hex-3-en-1-yloxy)-2-hydroxy-3,6-dimethylbenzoate], the Odor description entry in data set [1] is “powdery mossy (Evernyl)”. In data set [2] (setting [9]), the “odor on dry fabric” value is recorded as “oakmoss” and the “odor intensity, wet” value is 1.0. Also, the “odor intensity, 1 day” value in data set [2] (setting [10]) worked out at 1.7. Also, the “odor intensity, 4 days” value in data set [2] (setting [11]) was 3.3.

For the compound `CC(=O)CCc1ccc(OCCC=C(C)C)cc1` [Example 18, 4-(4-((4-methylpent-3-en-1-yl)oxy)phenyl)butan-2-one], in data set [1], the Odor description result is listed as “sweet fruity (raspberry ketone)”. For the same compound, in data set [3], the “result” value was “readily” and the Biodegradation in % stood at 91%.
